Data published in PubChem BioAssay AID330 (DTP/NCI, 2004).
“And” between values parts separate entries of the source, which are not always exact repeats. Identical values can stand only once. Inconclusive results and toxic doses are left out.

Test system: P388 leukemia ip, CD2F1 mice, survival T/C
Assay: NCI In Vivo Anticancer Drug Screen. Data for tumor model P388 Leukemia (intraperitoneal) in CD2F1 (CDF1) mice
Details: endpoint: median survival time, higher = longer survival
Outline: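 Mice carrying the transplanted tumor received test compound or vehicle. Survival was recorded in each group, and the value is the treated-group measurement divided by that of the vehicle-treated control group.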

[1] = dose: 100.0 mg/kg/injection, schedule: Q04DX003 (ip), vehicle: saline
[2] = dose: 200.0 mg/kg/injection, schedule: Q04DX003 (ip), vehicle: saline
[3] = dose: 400.0 mg/kg/injection, schedule: Q04DX003 (ip), vehicle: saline
[4] = dose: 50.0 mg/kg/injection, schedule: Q01DX005 (ip), vehicle: saline with Tween-80
[5] = dose: 50.0 mg/kg/injection, schedule: Q01DX009 (ip), vehicle: saline with Tween-80
[6] = dose: 100.0 mg/kg/injection, schedule: Q01DX009 (ip), vehicle: saline with Tween-80
[7] = dose: 200.0 mg/kg/injection, schedule: Q01DX009 (ip), vehicle: saline with Tween-80
[8] = dose: 100.0 mg/kg/injection, schedule: Q01DX005 (ip), vehicle: saline with Tween-80
[9] = dose: 200.0 mg/kg/injection, schedule: Q01DX005 (ip), vehicle: saline with Tween-80

SMILES: COC(=O)c1cc(C(=O)OC)c2c3[nH]cnc3ncn2c1=O
- T/C (dose: 100.0 mg/kg/injection, schedule: Q04DX003 (ip), vehicle: saline with Tween-80): 98 % of control
- T/C (dose: 200.0 mg/kg/injection, schedule: Q04DX003 (ip), vehicle: saline with Tween-80): 100 % of control
- T/C (dose: 400.0 mg/kg/injection, schedule: Q04DX003 (ip), vehicle: saline with Tween-80): 97 % of control

SMILES: O=NNc1ccc(Cl)nc1
- T/C (dose: 3.12 mg/kg/injection, schedule: Q01DX009 (ip), vehicle: saline): 109 % of control
- T/C (dose: 6.25 mg/kg/injection, schedule: Q01DX009 (ip), vehicle: saline): 110 % of control
- T/C (dose: 12.5 mg/kg/injection, schedule: Q01DX009 (ip), vehicle: saline): 106 % of control
- T/C (dose: 25.0 mg/kg/injection, schedule: Q01DX009 (ip), vehicle: saline): 106 % of control
- T/C (dose: 50.0 mg/kg/injection, schedule: Q01DX009 (ip), vehicle: saline): 107 % of control

SMILES: COc1cc2c(cc1OC)C(C1c3cc(OC)c(OC)cc3-c3c(OC)c(OC)cc4c3C1N(C)CC4)C1c3c(cc(OC)c(OC)c3-2)CCN1C (configuration not stated)
- T/C [1]: 99 % of control
- T/C [2]: 100 % of control
- T/C [3]: 97 % of control

SMILES: CCc1nc(N)nc(N)c1-c1ccc(N)cc1
- T/C (dose: 12.5 mg/kg/injection, schedule: Q01DX005 (ip), vehicle: saline with Tween-80): 104 % of control
- T/C (dose: 25.0 mg/kg/injection, schedule: Q01DX005 (ip), vehicle: saline with Tween-80): 100 % of control
- T/C [4]: 98 % of control and 99 % of control

SMILES: N/C=N/OC(c1ccccc1)c1ccccc1
- T/C (dose: 50.0 mg/kg/injection, schedule: Q01DX005 (ip), vehicle: Klucel + Tween-80): 99 % of control
- T/C (dose: 100.0 mg/kg/injection, schedule: Q01DX005 (ip), vehicle: Klucel + Tween-80): 102 % of control
- T/C (dose: 200.0 mg/kg/injection, schedule: Q01DX005 (ip), vehicle: Klucel + Tween-80): 98 % of control

SMILES: CCCCCCC1N=C(N)N=C(N)N1c1ccc(Cl)cc1 (configuration not stated)
- T/C (dose: 6.25 mg/kg/injection, schedule: Q01DX005 (ip), vehicle: Klucel (hydroxypropylcellulose) (HPC)): 100 % of control
- T/C (dose: 12.5 mg/kg/injection, schedule: Q01DX005 (ip), vehicle: Klucel (hydroxypropylcellulose) (HPC)): 110 % of control
- T/C (dose: 25.0 mg/kg/injection, schedule: Q01DX005 (ip), vehicle: Klucel (hydroxypropylcellulose) (HPC)): 106 % of control

SMILES: CC(SCc1ccccc1)C(N)C(=O)O (configuration not stated)
- T/C [5]: 100 % of control
- T/C [6]: 103 % of control
- T/C [7]: 91 % of control

SMILES: CCN(CC)CCOc1ccc(C(O)(Cc2ccc(OC)cc2)c2ccccc2)cc1 (configuration not stated)
- T/C [4]: 101 % of control
- T/C [8]: 92 % of control
- T/C [9]: 92 % of control

SMILES: S=C(Nc1ccc(I)cc1)SCc1ccc2c(c1)OCO2
- T/C (dose: 50.0 mg/kg/injection, schedule: Q01DX009 (ip), vehicle: suspension in saline): 110 % of control
- T/C (dose: 100.0 mg/kg/injection, schedule: Q01DX009 (ip), vehicle: suspension in saline): 104 % of control
- T/C (dose: 200.0 mg/kg/injection, schedule: Q01DX009 (ip), vehicle: suspension in saline): 101 % of control

SMILES: Nc1nc2[nH]ccc2c(=O)[nH]1
- T/C (dose: 12.5 mg/kg/injection, schedule: Q01DX009 (ip), vehicle: saline with Tween-80): 95 % of control
- T/C (dose: 25.0 mg/kg/injection, schedule: Q01DX009 (ip), vehicle: saline with Tween-80): 94 % of control
- T/C [5]: 104 % of control
- T/C [6]: 113 % of control

SMILES: Cc1c([N+](=O)[O-])/c(=N/O)c2c(=O)c([N+](=O)[O-])coc2n1O
- T/C (dose: 50.0 mg/kg/injection, schedule: Q01DX009 (ip), vehicle: Klucel (hydroxypropylcellulose) (HPC)): 108 % of control
- T/C (dose: 100.0 mg/kg/injection, schedule: Q01DX009 (ip), vehicle: Klucel (hydroxypropylcellulose) (HPC)): 99 % of control
- T/C (dose: 200.0 mg/kg/injection, schedule: Q01DX009 (ip), vehicle: Klucel (hydroxypropylcellulose) (HPC)): 90 % of control

SMILES: NC(=O)CC[n+]1cccc(C(=O)O)c1
- T/C [1]: 100 % of control
- T/C [2]: 95 % of control
- T/C [3]: 95 % of control

SMILES: COC1=C(C)[C@@H]2CC(=O)O[C@@H]3C[C@H]4[C@H](C)C[C@H](OC5OC(CO)C(O)C(O)C5O)C(=O)[C@]4(C)[C@@H](C1=O)[C@@]32C (some centres not stated)
- T/C (dose: 5.0 mg/kg/injection, schedule: Q01DX005 (ip), vehicle: Klucel (hydroxypropylcellulose) (HPC)): 103 % of control
- T/C (dose: 10.0 mg/kg/injection, schedule: Q01DX005 (ip), vehicle: Klucel (hydroxypropylcellulose) (HPC)): 107 % of control
- T/C (dose: 20.0 mg/kg/injection, schedule: Q01DX005 (ip), vehicle: Klucel (hydroxypropylcellulose) (HPC)): 103 % of control

SMILES: COC(=O)C1=CO[C@@H](OC2OC(CO)C(O)C(O)C2O)[C@H]2[C@@H]1C=C[C@@]21C=C([C@H](C)OC(=O)/C=C/c2ccc(OC3OC(CO)C(O)C(O)C3O)cc2)C(=O)O1 (some centres not stated)
- T/C (dose: 56.0 mg/kg/injection, schedule: Q01DX005 (ip), vehicle: water): 105 % of control
- T/C (dose: 112.0 mg/kg/injection, schedule: Q01DX005 (ip), vehicle: water): 105 % of control
- T/C (dose: 225.0 mg/kg/injection, schedule: Q01DX005 (ip), vehicle: water): 104 % of control

SMILES: NC(CO)C(=O)NCCS(=O)(=O)O (configuration not stated)
- T/C (dose: 60.0 mg/kg/injection, schedule: Q01DX005 (ip), vehicle: saline): 104 % of control
- T/C (dose: 120.0 mg/kg/injection, schedule: Q01DX005 (ip), vehicle: saline): 99 % of control
- T/C (dose: 240.0 mg/kg/injection, schedule: Q01DX005 (ip), vehicle: saline): 99 % of control

SMILES: CCN(CC)CCN1C(=O)CN=C(c2ccccn2)c2cc(Cl)ccc21
- T/C [5]: 100 % of control
- T/C [6]: 95 % of control
- T/C [7]: 100 % of control

SMILES: Nc1c(OS(=O)(=O)c2ccccc2)cccc1OS(=O)(=O)c1ccccc1
- T/C [5]: 91 % of control
- T/C [6]: 90 % of control

SMILES: [N-]=[N+]=CC(=O)CCC(=O)C=[N+]=[N-]
- T/C (dose: 0.75 mg/kg/injection, schedule: Q01DX009 (ip), vehicle: other): 123 % of control
- T/C (dose: 0.78 mg/kg/injection, schedule: Q01DX007 (ip), vehicle: DMSO): 101 % of control
- T/C (dose: 1.56 mg/kg/injection, schedule: Q01DX007 (ip), vehicle: DMSO): 117 % of control
- T/C (dose: 3.0 mg/kg/injection, schedule: Q01DX009 (ip), vehicle: other): 170 % of control
- T/C (dose: 6.0 mg/kg/injection, schedule: Q01DX009 (ip), vehicle: other): 104 % of control
- T/C (dose: 6.25 mg/kg/injection, schedule: Q01DX007 (ip), vehicle: DMSO): 158 % of control
- T/C (dose: 12.5 mg/kg/injection, schedule: Q01DX007 (ip), vehicle: DMSO): 93 % of control
- T/C (dose: 25.0 mg/kg/injection, schedule: Q01DX007 (ip), vehicle: DMSO): 93 % of control

SMILES: C=C(Br)COc1ccc2c(C)cc(=O)oc2c1
- T/C (dose: 60.0 mg/kg/injection, schedule: Q01DX005 (ip), vehicle: saline with Tween-80): 115 % of control
- T/C (dose: 120.0 mg/kg/injection, schedule: Q01DX005 (ip), vehicle: saline with Tween-80): 100 % of control
- T/C (dose: 240.0 mg/kg/injection, schedule: Q01DX005 (ip), vehicle: saline with Tween-80): 96 % of control

SMILES: COc1ccc2ccccc2c1Cc1ccc(N(C)C)cc1Cl
- T/C [4]: 92 % of control
- T/C [8]: 95 % of control
- T/C [9]: 90 % of control

SMILES: NC(Cc1c(Br)[nH]c2ccccc12)C(=O)O (configuration not stated)
- T/C [4]: 98 % of control
- T/C [8]: 103 % of control
- T/C [9]: 104 % of control

SMILES: CCCCCCCCCCCCOc1ccc(Br)cc1C(=O)O
- T/C [5]: 100 % of control
- T/C [6]: 112 % of control
- T/C [7]: 105 % of control

SMILES: COc1ccc(Cc2cc3c(cc2OCC(=O)N(C)C)OCO3)cc1
- T/C (dose: 50.0 mg/kg/injection, schedule: Q01DX005 (ip), vehicle: Klucel (hydroxypropylcellulose) (HPC)): 103 % of control
- T/C (dose: 100.0 mg/kg/injection, schedule: Q01DX005 (ip), vehicle: Klucel (hydroxypropylcellulose) (HPC)): 98 % of control
- T/C (dose: 200.0 mg/kg/injection, schedule: Q01DX005 (ip), vehicle: Klucel (hydroxypropylcellulose) (HPC)): 96 % of control

SMILES: C=CCSC(=S)Nc1nc2ccc(C)cc2s1
- T/C (dose: 100.0 mg/kg/injection, schedule: Q04DX003 (ip), vehicle: Klucel (hydroxypropylcellulose) (HPC)): 96 % of control
- T/C (dose: 200.0 mg/kg/injection, schedule: Q04DX003 (ip), vehicle: Klucel (hydroxypropylcellulose) (HPC)): 98 % of control
- T/C (dose: 400.0 mg/kg/injection, schedule: Q04DX003 (ip), vehicle: Klucel (hydroxypropylcellulose) (HPC)): 97 % of control

SMILES: Clc1ccc2c(cnc3ccccc32)n1
- T/C (dose: 12.5 mg/kg/injection, schedule: Q04DX002 (ip), vehicle: saline with Tween-80): 102 % of control
- T/C (dose: 25.0 mg/kg/injection, schedule: Q04DX002 (ip), vehicle: saline with Tween-80): 102 % of control
- T/C (dose: 50.0 mg/kg/injection, schedule: Q04DX002 (ip), vehicle: saline with Tween-80): 101 % of control
